Key:
IBD mice = assay: DSS-induced inflammatory bowel disease (IBD) mouse model: colon IL-6 by ELISA and colon length; format: in vivo, C57BL6 mice; settings: for reduction of IL-6 levels within the colon: male mice, 2.5% DSS for 5 days, treatment from day 4 for four days, 2-CL-MGV-1 15 mg/kg, dexamethasone 0.75 mg/kg, vs DSS without treatment
Procedure: FIG. 1 includes a bar graph showing that interleukin (IL) 6 levels in the gut of IBD mice are reduced in response to 2-CL-MGV-1 treatment. Nine-weeks-old C57BL6 male mice were given 2.5% dextran sulfate sodium (DSS) in drinking water for 5 days. Naive mice were given water only. The treatments: 2-CL-MGV-1 and dexamethasone were given on day 4 for four days. […] ANOVA followed by Bonferroni's post-hoc test was performed. ***p<0.00001 compared to control.
FIG. 2 includes a bar graph showing that the treatment with 2-CL-MGV-1 reduces the shortening of IBD mice colon. Nine-weeks-old C57BL6 male mice were given 2.5% DSS in drinking water for 5 days. Naive mice were given water only. The treatments: 2-CL-MGV-1 and dexamethasone were given on day 4 for four days.
FIG. 4 includes a vertical bar graph showing that IL 6 levels in the gut of IBD mice are reduced in response to 2-CL-MGV-1 treatment. C57BL female mice aged of 8-10 weeks were given 2.5% DSS in their drinking water for 7 days. Vehicle group mice were given water only and DMSO injections on the 4th day for 4 days. DSS group received DSS with DMSO (as a vehicle) that were given on the 4th day for 4 days. The treatment group received 2-CL-MGV-1 (15 mg/kg) and DMSO as a vehicle were given on the 4th day for 4 days. […] ANOVA followed by Bonferroni's post-hoc test was performed. ***p<0.001 compared to control.
FIG. 5 includes a vertical bar graph showing that the treatment with 2-CL-MGV-1 reduces the shortening of IBD mice colon. C57BL female mice aged of 8-10 weeks were given 2.5% DSS in their drinking water for 7 days. Vehicle group mice were given water only and DMSO injections on the 4th day for 4 days. DSS group received DSS with DMSO (as a vehicle) that were given on the 4th day for 4 days. The treatment group received 2-CL-MGV-1 (15 mg/kg) and DMSO (as a vehicle) that were given on the 4th day for 4 days. […] ANOVA followed by Bonferroni's post-hoc test was performed. ***p<0.001 compared to control.
C57BL mice 8-10 weeks old were given 2.5% DSS in their drinking water for 7 days. On the fourth day, the mice were injected subcutaneously (S.C) with either DMSO or 2-CL-MGV-1 (30 μl) for four days. The mice were sacrificed on the eighth day of the experiment.
In the IBD experiment, 2-Cl-MGV-1 was injected subcutaneously for four days, three days after inflammation induction in the colon, using dextran sulfate sodium (DSS). On the following day, the mice were sacrificed, and the colon was removed. Colon lengths were measured, and cytokine levels were detected by ELISA.

[1] = test system: human retinal pigment epithelium (RPE)-19 cell line; assay: In vitro AMD model: RPE-19 cells stimulated with TNF-α and INF-γ (TI), secreted pro-inflammatory mediators; format: cell-based; settings: RPE cells pretreated with compound, TNF-α and INF-γ stimulation
From the text: TNF-α and INF-γ stimulation (TI).
Next, the effect of 2-CL-MGV-1 was examined in an in vitro model of age-related macular degeneration (AMD). Human retinal pigment epithelium (RPE)-19 cell line stimulated with TNF-α and INF-γ (TI) are known to mimic AMD by complement activation and increased levels of circulating cytokines.

[2] = test system: lipopolysaccharide (LPS)-induced microglial activation; settings: recent studies of the inventors; cited from earlier work
[3] = high concentrations (above 100 μM); cited from earlier work
[4] = female mice, 2.5% DSS for 7 days, 2-CL-MGV-1 15 mg/kg s.c. from 4th day for 4 days, vs DSS+vehicle (DMSO)

SMILES	reduction of IL-6 levels within the colon (IBD mice)	decrease in IL-6 content in the colon (IBD mice; [4])	increase in colon length (IBD mice; [4])	colon shrinkage effect compared to dexamethasone (IBD mice; male DSS mice, 2-CL-MGV-1 15 mg/kg vs dexamethasone 0.75 mg/kg)	colon shrinkage (shortening) effect (IBD mice; male and female DSS mice, 2-CL-MGV-1 15 mg/kg for four days)	effect on IL-6 secretion relative to dexamethasone (DEX) treatment (IBD mice; murine IBD model, compared to DEX)	TI-induced secretion of IL-8 [1]	TI-induced secretion of complement C3 [1]	TI-induced secretion of complement C5 [1]	TI-induced secretion of reactive oxygen species (ROS) [1]	LPS-induced microglial activation [2]	lethal effects [3]
C[C@@H]1C[C@H]2[C@@H]3CCC4=CC(=O)C=C[C@]4(C)[C@@]3(F)[C@@H](O)C[C@]2(C)[C@@]1(O)C(=O)CO [dexamethasone, reference compound]	20%	–	–	–	–	–	–	–	–	–	–	–
CN(C)C(=O)Oc1nc(-c2ccccc2Cl)nc2ccccc12 [2-Cl-MGV-1, 2-chlorophenyl quinazolin-4-yl dimethylcarbamate]	75%	64%	26%	significantly more pronounced	alleviated the colon shrinkage effect	about 75%	significantly reduced	significantly reduced	significantly reduced	significantly reduced	inhibit	very few lethal effects
CCC(C)N(C)C(=O)c1cc2ccccc2c(-c2ccccc2Cl)n1 (centres unmarked) [PK 11195, reference compound]	–	–	–	–	–	–	–	–	–	–	–	pronounced lethal effects

Reference: patent US20260174761A1 (priority 2022, published 2026)
